Assay results published in patent US9480259B2, “Pyrazolopyrans having herbicidal and pharmaceutical properties” (BASF SE, priority 2012, dated 2016).

biological target: Arabidopsis thaliana SHMT; test: SHMT activity assay (ED50 SHMT), coupled with N5,N10-CH2-THF dehydrogenase, NADH at 340 nm; format: biochemical; conditions: Table 2, Arabidopsis thaliana SHMT enzyme assay; values given as upper bounds
Procedure: Determination of the ED50 SHMT was carried out as described hereinunder.
Purification of Arabidopsis thaliana SHMT
The following buffers were used during the purification protocol:
Buffer A (Lysis and Wash Buffer): • 20 mM Na-Phosphat (pH 7,4) • 500 mM NaCI • 40 mM Imidazole • 1.0 mM L-Serine • 0.5 mM Pyridoxal-5-phosphate • 0.5 mM DTT
Buffer B (Elution Buffer): • 20 mM Na-Phosphat (pH 7,4) • 500 mM NaCl • 250 mM Imidazole • 1.0 mM L-Serine • 0.5 mM Pyridoxal-5-phosphate • 0.5 mM DTT
All procedures were conducted at 4° C. or on ice. Pellets were suspended in Buffer A containing 1 mg/ml DNAse +Complete EDTA-free protease inhibitor tablet. Cells were lysed using sonication or a French Press device, using standard settings. Lysis was centrifuged at 40000×g for 25 minutes. The supernatant was filtered (0.22 μM) before loading onto a Ni-NTA column.
A gravity flow column containing Ni-NTA resin was equilibrated with 10 CV Buffer A and loaded with filtered cell lysate. The column was then washed with 10 CV Buffer A. Elution was afforded using Buffer B and collected manually as mini-factions. EDTA was added after elution to a final concentration of 1 mM. Fractions were pooled on the basis of the correct band for SHMT visualised via SDS-PAGE and staining.
SHMT Assay Buffer: • 50 mM KH2PO4 (pH 7,4) • 2.0 mM NAD+ • 7.5 mM DTT • 0.3 mM Tetrahydrofolic acid • 4% DMSO
Reaction Start: 20 mM L-Serine
The rate of N5,N10-CH2-THF formation catalyzed by SHMT was monitored at 340 nm by coupling with excess N5,N10-CH2-THF dehydrogenase, which converts NAD+to NADH. Reactions were initiated by adding 20 mM L-Serine. Inhibition of initial velocity was determined by adding various inhibitors of the SHMT reaction and monitored as described. Reactions were measured in a Bio Tek micro titer plate reader following the change in absorption with the formation of NADH for 30 mimnutes.

| EC50 | SMILES |
| --- | --- |
| < 10 nM | Cc1n[nH]c2c1C(c1cc(Cl)cc(Oc3ccc(Cl)cc3)c1)(C1CC1)C(C#N)=C(N)O2 (racemic) [Compound 2.342] |
| < 10 nM | Cc1n[nH]c2c1C(c1cc(Cl)cc(Oc3cccc(Cl)c3)c1)(C1CC1)C(C#N)=C(N)O2 (racemic) [Compound 2.347] |
| < 10 nM | Cc1n[nH]c2c1C(c1cc(Cl)cc(C#N)c1)(C1(F)CC1)C(C#N)=C(N)O2 (racemic) [Compound 2.379] |

same assay, conditions: Table 2; values given as upper bounds

| SMILES | EC50 |
| --- | --- |
| CCC1(c2cccc(F)c2)C(C#N)=C(N)Oc2[nH]nc(C)c21 (racemic) [Compound 2.9.] | < 1000 nM |
| CCC1(c2ccc(F)c(Br)c2)C(C#N)=C(N)Oc2[nH]nc(C)c21 (racemic) [Compound 2.13.] | < 100 nM |
| CCC1(c2ccc(OC(C)(C)C)cc2)C(C#N)=C(N)Oc2[nH]nc(C)c21 (racemic) [Compound 2.27.] | < 10000 nM |
| CCC1(c2cccc(C)c2)C(C#N)=C(N)Oc2[nH]nc(C)c21 (racemic) [Compound 2.42.] | < 10000 nM |
| CCOC(=O)COc1ccc(C2(CC)C(C#N)=C(N)Oc3[nH]nc(C)c32)cc1[N+](=O)[O-] (racemic) [Compound 2.43.] | < 1000 nM |
| CCCCC1(c2cccc(Cl)c2)C(C#N)=C(N)Oc2[nH]nc(C)c21 (racemic) [Compound 2.91.] | < 10000 nM |
| CCCCC1(c2cc(Cl)cc(Cl)c2)C(C#N)=C(N)Oc2[nH]nc(C)c21 (racemic) [Compound 2.92.] | < 10000 nM |
| CCC1(c2cccc(C(F)(F)F)c2)C(C#N)=C(N)Oc2[nH]nc(COC)c21 (racemic) [Compound 2.97.] | < 10000 nM |
| CCCc1n[nH]c2c1C(CC)(c1cccc(C(F)(F)F)c1)C(C#N)=C(N)O2 (racemic) [Compound 2.99.] | < 10000 nM |
| Cc1n[nH]c2c1C(c1ccc(OC(F)(F)F)cc1)(C(C)C)C(C#N)=C(N)O2 (racemic) [Compound 2.145.] | < 1000 nM |
| N#CC1=C(N)Oc2[nH]nc(C3CC3)c2C1(c1cc(Cl)cc(Cl)c1)C1CCC1 (racemic) [Compound 2.156.] | < 100 nM |
| CCC1(c2ccc(Oc3ccccc3)cc2)C(C#N)=C(N)Oc2[nH]nc(C(C)C)c21 (racemic) [Compound 2.160.] | < 10000 nM |
| CCC1(c2cccc(Oc3ccccc3)c2)C(C#N)=C(N)Oc2[nH]nc(C)c21 (centres unmarked) [Compound 2.1.] | < 100 nM |
| CCC1(c2ccc(F)cc2)C(C#N)=C(N)Oc2[nH]nc(C)c21 (centres unmarked) [Compound 2.2.] | < 10000 nM |
| CCC1(c2cccc(Br)c2)C(C#N)=C(N)Oc2[nH]nc(C)c21 (centres unmarked) [Compound 2.4.] | < 1000 nM |
| CCC1(c2ccc(NC(C)=O)cc2)C(C#N)=C(N)Oc2[nH]nc(C)c21 (centres unmarked) [Compound 2.6.] | < 10000 nM |
| CCC1(c2ccc(C(C)(C)C)cc2)C(C#N)=C(N)Oc2[nH]nc(C)c21 (centres unmarked) [Compound 2.7.] | < 10000 nM |
| CCC1(c2ccc(Oc3ccccc3)cc2)C(C#N)=C(N)Oc2[nH]nc(C)c21 (centres unmarked) [Compound 2.8.] | < 1000 nM |
| CCC1(c2ccc(F)c(Oc3ccccc3)c2)C(C#N)=C(N)Oc2[nH]nc(C)c21 (centres unmarked) [Compound 2.11.] | < 1000 nM |
| CCC1(c2cc(Cl)cc(Cl)c2)C(C#N)=C(N)Oc2[nH]nc(C)c21 (centres unmarked) [Compound 2.12.] | < 100 nM |
| CCC1(c2ccc(Cl)c(Cl)c2)C(C#N)=C(N)Oc2[nH]nc(C)c21 (centres unmarked) [Compound 2.14.] | < 100 nM |
| CCC1(c2cccc(F)c2)C(C#N)=C(N)Oc2[nH]nc(C)c21 (centres unmarked) [Compound 2.15.] | < 10000 nM |
| CCC1(c2ccc(F)c(F)c2)C(C#N)=C(N)Oc2[nH]nc(C)c21 (centres unmarked) [Compound 2.16.] | < 10000 nM |
| CCC1(c2cc(F)cc(F)c2)C(C#N)=C(N)Oc2[nH]nc(C)c21 (centres unmarked) [Compound 2.17.] | < 1000 nM |
| CCC1(c2cc(F)c(F)c(F)c2)C(C#N)=C(N)Oc2[nH]nc(C)c21 (centres unmarked) [Compound 2.18.] | < 1000 nM |
| CCC1(c2ccc(F)c(Cl)c2)C(C#N)=C(N)Oc2[nH]nc(C)c21 (centres unmarked) [Compound 2.19.] | < 100 nM |
| CCC1(c2cc(F)cc(Cl)c2)C(C#N)=C(N)Oc2[nH]nc(C)c21 (centres unmarked) [Compound 2.20.] | < 1000 nM |
| CCC1(c2ccc(OC)c(OC)c2)C(C#N)=C(N)Oc2[nH]nc(C)c21 (centres unmarked) [Compound 2.21.] | < 1000 nM |
| CCC1(c2ccc(OC)cc2)C(C#N)=C(N)Oc2[nH]nc(C)c21 (centres unmarked) [Compound 2.22.] | < 1000 nM |
| CCC1(c2ccc(Oc3ccc(C(F)(F)F)cc3Cl)c(C)c2)C(C#N)=C(N)Oc2[nH]nc(C)c21 (centres unmarked) [Compound 2.23.] | < 10000 nM |

The next lines start with the values.

| EC50 | SMILES |
| --- | --- |
| < 100 nM | CCC1(c2cc(F)cc(Br)c2)C(C#N)=C(N)Oc2[nH]nc(C)c21 (racemic) [Compound 2.467] |
| < 100 nM | Cc1n[nH]c2c1C(c1cc(Cl)cc(Cl)c1)(C1(F)COC1)C(C#N)=C(N)O2 (racemic) [Compound 2.478] |
| < 10 nM | Cc1n[nH]c2c1C(c1cc(C(F)(F)F)cc(C(F)(F)F)c1)(C1(F)COC1)C(C#N)=C(N)O2 (racemic) [Compound 2.501] |
| < 10 nM | Cc1n[nH]c2c1C(c1cc(Cl)cc(OCCC(=O)O)c1)(C1CCC1)C(C#N)=C(N)O2 (racemic) [Compound 2.505] |
| < 10 nM | COC(=O)c1cc(-c2cc(Cl)cc(C3(C4CCC4)C(C#N)=C(N)Oc4[nH]nc(C)c43)c2)ccc1Cl (racemic) [Compound 2.514] |
| < 10 nM | COC(=O)c1ccc(-c2cc(C#N)cc(C3(C4CCC4)C(C#N)=C(N)Oc4[nH]nc(C)c43)c2)cc1F (racemic) [Compound 2.521] |
| < 10 nM | Cc1n[nH]c2c1C(c1cc(Cl)cc(-c3cccc(NS(C)(=O)=O)c3)c1)(C1CCC1)C(C#N)=C(N)O2 (racemic) [Compound 2.527] |
| < 10 nM | Cc1n[nH]c2c1C(c1cc(Cl)cc(-c3ccc(NS(C)(=O)=O)cc3)c1)(C1CCC1)C(C#N)=C(N)O2 (racemic) [Compound 2.528] |
| < 10 nM | CCC1(c2cc(C#N)cc(C(F)(F)F)c2)C(C#N)=C(N)Oc2[nH]nc(C)c21 (racemic) [Compound 2.530] |
| < 100 nM | Cc1n[nH]c2c1C(c1cc(C(F)(F)F)cc(C(F)(F)F)c1)(C1CC(O)C1)C(C#N)=C(N)O2 (racemic) [Compound 2.540] |
| < 1000 nM | Cc1n[nH]c2c1C(c1ccc(CC(=O)O)c(C#N)c1)(C1CCC1)C(C#N)=C(N)O2 (racemic) [Compound 2.541] |

same assay, conditions: inhibition of initial velocity of Arabidopsis thaliana SHMT

| EC50 | SMILES |
| --- | --- |
| < 10 nM | Cc1n[nH]c2c1C(c1ccc(-c3ccsc3)s1)(C1CCC1)C(C#N)=C(N)O2 (racemic) [Compound 4.21] |
| < 10 nM | COc1ccc2cc(C3(C4(F)CC4)C(C#N)=C(N)Oc4[nH]nc(C)c43)ccc2c1 (racemic) [Compound 4.40] |
| < 100 nM | Cc1n[nH]c2c1C(c1ccc3c(c1)OCCO3)(C1(F)CC1)C(C#N)=C(N)O2 (racemic) [Compound 4.51] |
| < 100 nM | Cc1n[nH]c2c1C(c1nc3c(Br)cccc3o1)(C1CCC1)C(C#N)=C(N)O2 (racemic) [Compound 4.58] |
| < 100 nM | Cc1n[nH]c2c1C(c1ccc3ccccc3c1)(C1(F)CC1)C(C#N)=C(N)O2 (racemic) [Compound 4.59] |
| < 1000 nM | CCC1(CCC2CCCCC2)C(C#N)=C(N)Oc2[nH]nc(C)c21 (racemic) [Compound 4.65] |
| < 1000 nM | Cc1csc(C2(C3CC3)C(C#N)=C(N)Oc3[nH]nc(C)c32)c1 (racemic) [Compound 4.70] |
| < 1000 nM | COc1ccc2cc(C3(C4(F)CC4)C(C#N)=C(N)Oc4[nH]ncc43)ccc2c1 (racemic) [Compound 4.75] |
| < 10000 nM | Cc1n[nH]c2c1C(c1ccc3c(c1)OC(F)(F)O3)(C1(F)COC1)C(C#N)=C(N)O2 (racemic) [Compound 4.84] |
